Source: patent EP0760376A1, “PEPTIDES INHIBITING PHOSPHOLIPASE C” (Kyowa Hakko Kogyo Co., Ltd., priority 1995, dated 1996)
Converted amounts (≈) assume the structure as drawn. Square brackets hold non-standard residues; d marks the D form. Peptide text beside a SMILES is read from it. * marks the point of attachment. 12Ado = NCCCCCCCCCCCC(=O)O; Aun = NCCCCCCCCCCC(=O)O; Butyryl = CCCC(=O)*

How the values were obtained:
[1] = test system: Bacillus subtilis No. 10707; type: cell-based; conditions: No. 10707, pH 7
Method: (§1) The antibacterial activity was determined by the agar dilution method using a medium (pH 7.0) which comprises 3 g/l Bacto-tryptone (Difco Laboratories), 1 g/l meat extract, 1 g/l glucose and 16 g/l agar.

KMS-4 cells = experiment: Cell growth-inhibiting activity (BrdU incorporation, cell growth detection kit); type: cell-based; conditions: Concentration 1 µM, culturing with peptide for 17 hours
Method: The cell growth-inhibiting activity was determined using a cell growth detection kit (Amersham) in the following manner. KMS-4 cells [M. Nanba et al, International Journal of Cancer, 32, 697 (1983)] were suspended in DMEM medium (Nissui Pharmaceutical Co., Ltd.) containing 10% fetal calf serum at a density of 1-2 x 10^4 cells/ml, and 1 ml of the cell suspension was put into each well of a 24-well plate (Corning Inc.). The cells were cultured in a CO2 incubator (37°C, 5% CO2) for 2 days. Then, the medium was replaced with a fresh DMEM medium containing 10% fetal calf serum, and the test peptide was added thereto, followed by culturing for 17 hours. The medium was replaced with a serum-free DMEM medium, and 0.5 ml of a solution prepared by diluting labeled reagent 5-bromo-2'-deoxyuridine (BrdU) and 5-fluoro-2'-deoxyuridine (FdU) (10:1) 1000-fold with the same medium was added to each well, followed by culturing for 2 hours. Then the medium was removed, and the cells were immobilized with an acetic acid/ethanol solution. The immobilized cells were stained according to the method for the cell growth detection kit of Amersham, and then further stained with a 1% Giemsa solution (Merck & Co., Inc.). The number of cells which incorporated BrdU and the total number of cells within one field of vision of a microscope (approximately 200 cells) were determined, and the proportion (%) of stained cells per field of vision was calculated. The above procedure was repeated 10 times, and the average value thereof was defined as the cell growth activity (%). The cell growth-inhibiting activity was calculated in the following manner. That is, the cell growth inhibition rate was calculated according to the following equation: X (%) = (1-B/A) x 100 [formula] where A is the growth activity when no peptide was added, and B is the growth activity when the test peptide was added.

[2] = test system: Staphylococcus aureus ATCC 6538P; type: cell-based; conditions: pH 7
Method: as §1

[3] = test system: Pseudomonas aeruginosa Bin H No. 1; type: cell-based; conditions: Bin H No. 1, pH 7
Method: as §1

[4] = test system: Candida albicans ATCC 10231; type: cell-based; conditions: ATCC 10231, pH 7
Method: as §1

PLC-γ1 = target: T1, PLC-γ1 (Bos taurus, UniProt P08487); experiment: PLC-inhibiting activity (release of [3H]inositol phosphate from [3H]PIP2); type: biochemical, bovine; conditions: 37°C, 10 minutes, pH 6.0, read-out: Inhibition rate (%)
T1 construct: A sample of PLC-γ1 was prepared from bovine thymus; from tissue; host or cells: bovine thymus
T1 sequence (P08487 1-1291): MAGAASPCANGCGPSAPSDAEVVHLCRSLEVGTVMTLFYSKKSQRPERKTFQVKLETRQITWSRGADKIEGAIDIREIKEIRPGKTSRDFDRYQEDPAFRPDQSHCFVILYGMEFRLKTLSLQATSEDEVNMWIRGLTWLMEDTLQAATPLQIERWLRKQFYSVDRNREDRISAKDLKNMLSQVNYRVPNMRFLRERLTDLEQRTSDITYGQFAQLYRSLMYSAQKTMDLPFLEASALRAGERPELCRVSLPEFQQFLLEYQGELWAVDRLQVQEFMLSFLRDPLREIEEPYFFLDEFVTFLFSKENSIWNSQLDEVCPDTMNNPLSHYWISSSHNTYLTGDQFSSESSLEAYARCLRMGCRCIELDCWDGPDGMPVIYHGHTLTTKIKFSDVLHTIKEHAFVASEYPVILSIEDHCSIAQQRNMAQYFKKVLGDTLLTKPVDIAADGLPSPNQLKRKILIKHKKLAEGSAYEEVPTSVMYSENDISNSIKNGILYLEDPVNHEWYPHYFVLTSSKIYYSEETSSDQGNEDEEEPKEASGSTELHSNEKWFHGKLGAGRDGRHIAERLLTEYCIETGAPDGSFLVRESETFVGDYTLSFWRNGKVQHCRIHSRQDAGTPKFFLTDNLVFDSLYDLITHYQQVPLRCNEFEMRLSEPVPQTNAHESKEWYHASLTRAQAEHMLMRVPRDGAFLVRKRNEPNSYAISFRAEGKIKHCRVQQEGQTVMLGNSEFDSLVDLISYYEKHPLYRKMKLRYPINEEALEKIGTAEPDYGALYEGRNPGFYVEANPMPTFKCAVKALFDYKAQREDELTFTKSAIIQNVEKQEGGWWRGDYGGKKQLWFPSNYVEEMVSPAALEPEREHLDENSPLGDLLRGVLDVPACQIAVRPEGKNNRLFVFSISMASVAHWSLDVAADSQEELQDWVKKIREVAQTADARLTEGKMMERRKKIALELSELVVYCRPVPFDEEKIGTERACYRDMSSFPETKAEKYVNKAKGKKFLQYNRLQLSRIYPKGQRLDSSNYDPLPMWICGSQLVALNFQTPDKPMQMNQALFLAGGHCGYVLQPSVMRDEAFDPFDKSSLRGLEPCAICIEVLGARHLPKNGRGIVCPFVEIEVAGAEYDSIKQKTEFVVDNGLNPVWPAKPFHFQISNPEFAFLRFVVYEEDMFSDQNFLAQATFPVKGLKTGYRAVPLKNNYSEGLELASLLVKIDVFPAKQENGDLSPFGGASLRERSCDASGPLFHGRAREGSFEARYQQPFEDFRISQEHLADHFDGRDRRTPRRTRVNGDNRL
Method: A sample of PLC-γ1 was prepared from bovine thymus according to the method described in Y. Honma et al., Biochem. J., 269, 13 (1990). A solution having the composition shown in Table 2 below was prepared on ice and was heated to 37°C to start reaction. After incubation for 10 minutes, 2 ml of a chloroform/methanol mixture (2:1, v/v) was added thereto to stop the reaction. The resulting inositol phosphate was extracted with 0.5 ml of 1 N hydrochloric acid. The extract was separated into two liquid phases by centrifugation (2000 x g, 3 minutes), and the amount of ^3H contained in the supernatant (0.7 ml) was measured with a scintillation counter. Table 2 [table] The inhibition rate (X) was calculated according to the following equation: X (%) = (A-C) / (B-C) x 100 [formula] where A is the obtained value of specific radioactivity, B is the value of specific radioactivity obtained when the same amount of water was added instead of the aqueous solution of the test peptide, and C is the value of specific radioactivity obtained when the same amount of water was added instead of the sample and the aqueous solution of the test peptide.

[5] = test system: Proteus vulgaris ATCC 6897; type: cell-based; conditions: ATCC 6897, pH 7
Method: as §1

[6] = test system: Enterococcus hirae ATCC 10541; experiment: Antibacterial activity, agar dilution method; type: cell-based; conditions: pH 7
Method: as §1

[7] = test system: Klebsiella pneumoniae ATCC 10031; experiment: Antibacterial activity, agar dilution method; type: cell-based; conditions: medium pH 7.0
Method: as §1

| MIC (µg/ml) BS [1] | MIC (µg/ml) SA [2] | MIC (µg/ml) PA [3] | MIC (µg/ml) CA [4] | inhibition at 116 µM (PLC-γ1; Concentration 116 µM (aqueous solution of test peptide provided for the test)) | MIC (µg/ml) PV [5] | MIC (µg/ml) EH [6] | MIC (µg/ml) KP [7] | inhibition at 23 µM (PLC-γ1; Concentration 23 µM (aqueous solution of test peptide provided for the test)) | Compound | Inhibition rate (%) (KMS-4 cells) |
| --- | --- | --- | --- | --- | --- | --- | --- | --- | --- | --- |
| 43 µg/mL (≈ 25 µM) | 171 µg/mL (≈ 99.5 µM) | 85 µg/mL (≈ 49.4 µM) | 171 µg/mL (≈ 99.5 µM) | 85% | 43 µg/mL (≈ 25 µM) | 171 µg/mL (≈ 99.5 µM) | 43 µg/mL (≈ 25 µM) |  | CSCC[C@H](NC(=O)[C@H](CCCCN)NC(=O)[C@H](CCCNC(=N)N)NC(=O)[C@H](Cc1ccc(O)cc1)NC(=O)[C@H](CC(C)C)NC(C)=O)C(=O)N[C@@H](CCCNC(=N)N)C(=O)N[C@@H](CC(C)C)C(=O)N[C@@H](CCCNC(=N)N)C(=O)N[C@@H](Cc1ccc(O)cc1)C(=O)N1CCC[C@H]1C(=O)N[C@H](C(=O)NCCCCCCCCCCC(N)=O)C(C)C [Compound (I-6), CH3CO-Leu-Tyr-Arg-Lys-Met-Arg-Leu-Arg-Tyr-Pro-Val-NH-(CH2)10CONH2] (Ac-LYRKMRLRYPV[Aun]-NH2) | 57% |
| 50 µg/mL (≈ 28.4 µM) | 200 µg/mL (≈ 114 µM) | 200 µg/mL (≈ 114 µM) |  |  | 100 µg/mL (≈ 56.8 µM) |  |  | 73% | CCCC(=O)N[C@@H](CC(C)C)C(=O)N[C@@H](Cc1ccc(O)cc1)C(=O)N[C@@H](CCCNC(=N)N)C(=O)N[C@@H](CCCCN)C(=O)N[C@@H](CCSC)C(=O)N[C@@H](CCCNC(=N)N)C(=O)N[C@@H](CC(C)C)C(=O)N[C@@H](CCCNC(=N)N)C(=O)N[C@@H](Cc1ccc(O)cc1)C(=O)N1CCC[C@H]1C(=O)N[C@H](C(=O)NCCCCCCCCCCCC(N)=O)C(C)C [Compound (I-9), C3H7CO-Leu-Tyr-Arg-Lys-Met-Arg-Leu-Arg-Tyr-Pro-Val-NH-(CH2)11CONH2] (Butyryl-LYRKMRLRYPV[12Ado]-NH2) |  |
